Where two headings read alike, the source gives them in different places.
Experiments:
[1] = biological target: T1, BRD4 (BD1) (Homo sapiens, UniProt O60885); assay: Binding assay BRD4/acetylated peptide H4 (TR-FRET protein-protein interaction assay)
T1 construct: N-terminally His6-tagged BRD4 (BD1) (amino acids 67-152, longer constructs also being possible, preferably amino acids 44-168); made in house; host or cells: E. coli
Excerpt: To assess the BRD4 binding strength of the substances described in this application, the ability thereof to inhibit the interaction between BRD4 (BD1) and acetylated histone H4 in a dose-dependent manner was quantified. For this purpose, a time-resolved fluorescence resonance energy transfer (TR-FRET) assay was used, which measures the binding between N-terminally His6-tagged BRD4 (BD1) (amino acids 67-152, longer constructs also being possible, preferably amino acids 44-168) and a synthetic acetylated histone H4 (Ac-H4) peptide with sequence […]-biotin. The recombinant BRD4 protein produced in-house according to Filippakopoulos et al., Nature, 2010, 468:1119-1123 was expressed in E. coli and purified by means of (Ni-NTA) affinity and (Sephadex G-75) size exclusion chromatography. The Ac-H4 peptide can be purchased, for example, from Biosyntan (Berlin, Germany). […] For this purpose, 100-fold concentrated solutions in DMSO were prepared by serial dilutions (1:3.4) of a 2 mM stock solution into a clear, 384-well microtitre plate (Greiner Bio-One, Frickenhausen, Germany). From this, 50 nl were transferred into a black test plate (Greiner Bio-One, Frickenhausen, Germany). […] This was followed by a 10-minute incubation step at 22° C. for the pre-equilibration of putative complexes between BRD4 and the substances. […] The mixture was then incubated in the dark at 22° C. for one hour and then at 4° C. for at least 3 hours and for no longer than overnight. The formation of BRD4/Ac-H4 complexes was determined by the measurement of the resonance energy transfer from the streptavidin-Eu cryptate to the anti-6His-XL665 antibody present in the reaction. For this purpose, the fluorescence emission was measured at 620 nm and 665 nm after excitation at 330-350 nm in a TR-FRET measuring instrument, for example a Rubystar or Pherastar (both from BMG Lab Technologies, Offenburg, Germany) or a Viewlux (Perkin-Elmer). The ratio of the emissions at 665 nm and at […] was taken as an indicator of the amount of BRD4/Ac-H4 complexes formed. The data (ratios) obtained were normalized, with 0% inhibition corresponding to the mean from the measurements for a set of controls (typically 32 data points) in which all the reagents were present. In these, in place of test substances, 50 nl of DMSO (100%) were used Inhibition of 100% corresponded to the mean from the measurements for a set of controls (typically 32 data points) in which all the reagents except BRD4 were present. The IC50 was determined by regression analysis based on a 4-parameter equation (minimum, maximum, IC50, Hill; […])).

[2] = system: MOLM-13 cells; assay: Cell proliferation assay (alamarBlue), MOLM-13; assay type: cell-based; details: Homo sapiens, acute myeloid leukaemia, 96 hours incubation
Method: (§1) In accordance with the invention, the ability of the substances to inhibit cell proliferation was determined Cell viability was determined by means of the alamarBlue® reagent (Invitrogen) in a Victor ×3 Multilabel Reader (Perkin Elmer). The excitation wavelength was 530 nm and the emission wavelength […].
The MOLM-13 cells (DSMZ, ACC 554) were sown at a concentration of 4000 cells/well in 100 μl of growth medium (RPMI1640, 10% FCS) on 96-well microtitre plates.
(§2) After overnight incubation at 37° C., the fluorescence values (CI values) were determined. Then the plates were treated with various substance dilutions (1E-5 M, 3E-6 M, 1E-6 M, 3E-7 M, 1E-7 M, 3E-8 M, 1E-8 M) and incubated at 37° C. over 96 (MOLM-13, B16F10, MDA-MB-431 cells), 120 (MOLP-8 cells) or 168 (LAPC-4 cells) hours. Subsequently, the fluorescence values were determined (CO values). For the data analysis, the CI values were subtracted from the CO values and the results were compared between cells which had been treated with various dilutions of the substance or only with buffer solution. The IC50 values (substance concentration needed for 50% inhibition of cell proliferation) were calculated therefrom.
(§3) The substances were tested in the cell lines in Table 1, which represent the indications specified by way of example: […]

[3] = system: LAPC-4 cells; assay: Cell proliferation assay (alamarBlue), LAPC-4; assay type: cell-based; details: Homo sapiens, LAPC4, prostate cancer, 1 nM methyltrienolone, 168 hours incubation
Method: as §1
The LAPC-4 cells (ATCC, PTA-1441TM) were sown at a concentration of 4000 cells/well in 100 μl of growth medium (RPMI1640, 2 mM L-glutamine, 10% cFCS) on 96-well microtitre plates. One day later, the LAPC-4 cells were treated with 1 nM methyltrienolone and various substance dilutions.
as §2, §3

[4] = system: B16F10 cells; assay: Cell proliferation assay (alamarBlue), B16F10; assay type: cell-based; details: Mus musculus, B16-F10, melanoma (BRAF wild-type), 96 hours incubation
Method: as §1
The B16F10 cells (ATCC, CRL-6475) were sown at a concentration of 300-500 cells/well in 100 μl of growth medium (DMEM with phenol red, 10% FCS) on 96-well microtitre plates.
as §2, §3

[5] = system: MDA-MB-231 cells; assay: Cell proliferation assay (alamarBlue), MDA-MB-231; assay type: cell-based; details: Homo sapiens, mammary carcinoma, 96 hours incubation, read-out: Breast MDA-MB-231 IC50
Method: as §1
The MDA-MB-231 cells (DSMZ, ACC 732) were sown at a concentration of 4000 cells/well in 100 μl of growth medium (DMEM/Ham's F12 medium, 10% FCS) on 96-well microtitre plates.
as §2, §3

[6] = system: MOLP-8 cells; assay: Cell proliferation assay (alamarBlue), MOLP-8; assay type: cell-based; details: Homo sapiens, multiple myeloma, 120 hours incubation
Method: as §1
The MOLP-8 cells (DSMZ, ACC 569) were sown at a concentration of 4000 cells/well in 100 μl of growth medium (RPMI1640, 20% FCS) on 96-well microtitre plates.
as §2, §3

[7] = BRD4 (BD1) / acetylated histone H4 peptide, TR-FRET, read-out: IC50 (BRD4)

| Compound | IC50 [1, 7] [nM] | IC50 [2] [nM] | IC50 [3] [nM] | IC50 [4] [nM] | IC50 [1] [nM] | IC50 [5] [nM] | IC50 [6] [nM] |
| --- | --- | --- | --- | --- | --- | --- | --- |
| Cc1c2c(cn1C)-n1c(C)nnc1[C@H](CC(=O)N1C3CCC1CC(=O)C3)N=C2c1ccc(Cl)cc1 (single isomer, unassigned; (-)) [Example 6] | 240 | 1240 | 520 | 890 | – | – | – |
| Cc1c2c(cn1C)-n1c(C)nnc1[C@H](CC(=O)N1CC3CCC(C1)O3)N=C2c1ccc(Cl)cc1 (single isomer, unassigned; (-)) [Example 8] | 190 | 750 | 540 | – | – | – | – |
| Cc1c2c(cn1C)-n1c(C)nnc1[C@H](CC(=O)N1CC3CCC(C3)C1)N=C2c1ccc(Cl)cc1 (single isomer, unassigned; (-)) [Example 10] | 310 | 1460 | – | – | – | – | – |
| Cc1c2c(cn1C)-n1c(C)nnc1[C@H](CC(=O)N1CC3CCC1CC3)N=C2c1ccc(Cl)cc1 (single isomer, unassigned; (-)) [Example 14] | 100 | 690 | 520 | – | – | – | – |
| Cc1c2c(cn1C)-n1c(C)nnc1[C@H](CC(=O)N1CC3CC1CO3)N=C2c1ccc(Cl)cc1 (stereo in doubt) [Example 7, (−)-2-[(4S)-6-(4-Chlorophenyl)-1,7,8-trimethyl-4,8-dihydropyrrolo[3,4-f][1,2,4]triazolo[4,3-a][1,4]diazepin-4-yl]-1-{(1S,4S)-2-oxa-5-azabicyclo[2.2.1]hept-5-yl}ethan-1-one] | 210 | – | – | – | – | – | – |
| Cc1c2c(cn1C)-n1c(C)nnc1[C@H](CC(=O)N1CC3(COC3)C1)N=C2c1ccc(Cl)cc1 [Example 1, (−)-2-[(4S)-6-(4-Chlorophenyl)-1,7,8-trimethyl-4,8-dihydropyrrolo[3,4-f][1,2,4]triazolo-[4,3-a][1,4]diazepin-4-yl]-1-(2-oxa-6-azaspiro[3.3]hept-6-yl)ethan-1-one] | 150 | 710 | 680 | 1140 | – | – | – |
| Cc1c2c(cn1C)-n1c(C)nnc1[C@H](CC(=O)N1CC3(COC3)C1)N=C2c1ccccc1 [Example 2, 2-(1,7,8-Trimethyl-6-phenyl-4,8-dihydropyrrolo[3,4-f][1,2,4]triazolo[4,3-a][1,4]diazepin-4-yl)-1-(2-oxa-6-azaspiro[3.3]hept-6-yl)ethan-1-one] | 140 | 900 | 920 | 2010 | – | – | – |
| Cc1c2c(cn1C)-n1c(C)nnc1[C@H](CC(=O)N1CC3(CCS3(=O)=O)C1)N=C2c1ccc(Cl)cc1 [Example 3, (−)-2-[(4S)-6-(4-Chlorophenyl)-1,7,8-trimethyl-4,8-dihydropyrrolo[3,4-f][1,2,4]triazolo[4,3-a][1,4]diazepin-4-yl]-1-(1,1-dioxo-1λ^6-1-thia-6-azaspiro[3.3]hept-6-yl)ethan-1-one] | – | 110 | 110 | 160 | 20 | 300 | 140 |
| Cc1nnc2n1-c1cn(C)nc1C(c1ccc(Cl)cc1)=N[C@H]2CC(=O)N1CC2(COC2)C1 [Example 4, 2-[(4S)-6-(4-Chlorophenyl)-1,8-dimethyl-4,8-dihydropyrazolo[3,4-f][1,2,4]triazolo[4,3-a][1,4]diazepin-4-yl]-1-(2-oxa-6-azaspiro[3.3]hept-6-yl)ethan-1-one] | 460 | – | – | – | – | – | – |
| Cc1c2c(cn1C)-n1c(C)nnc1[C@H](CC(=O)N1CCOC3(CCCCC3)C1)N=C2c1ccc(Cl)cc1 [Example 9, (−)-2-[(4S)-6-(4-Chlorophenyl)-1,7,8-trimethyl-4,8-dihydropyrrolo[3,4-f][1,2,4]triazolo[4,3-a][1,4]diazepin-4-yl]-1-(1-oxa-4-azaspiro[5.5]undec-4-yl)ethanone] | 80 | 1050 | 1070 | – | – | – | – |
| Cc1c2c(cn1C)-n1c(C)nnc1[C@H](CC(=O)N1CC3(CCOCC3)C1)N=C2c1ccc(Cl)cc1 [Example 11, (−)-2-[(4S)-6-(4-Chlorophenyl)-1,7,8-trimethyl-4,8-dihydropyrrolo[3,4-f][1,2,4]triazolo[4,3-a][1,4]diazepin-4-yl]-1-(7-oxa-2-azaspiro[3.5]non-2-yl)ethanone] | 690 | – | – | – | – | – | – |
| Cc1c2c(cn1C)-n1c(C)nnc1[C@H](CC(=O)N1CCC3(CC1)COC3)N=C2c1ccc(Cl)cc1 [Example 12, (−)-2-[(4S)-6-(4-Chlorophenyl)-1,7,8-trimethyl-4,8-dihydropyrrolo[3,4-f][1,2,4]triazolo[4,3-a][1,4]diazepin-4-yl]-1-(2-oxa-7-azaspiro[3.5]non-7-yl)ethanone] | 120 | 480 | – | – | – | – | – |
| Cc1c2c(cn1C)-n1c(C)nnc1[C@H](CC(=O)N1CCC3(COC3)C1)N=C2c1ccc(Cl)cc1 [Example 13, (−)-2-[(4S)-6-(4-Chlorophenyl)-1,7,8-trimethyl-4,8-dihydropyrrolo[3,4-f][1,2,4]triazolo[4,3-a][1,4]diazepin-4-yl]-1-(2-oxa-6-azaspiro[3.4]oct-6-yl)ethanone] | 70 | 410 | 230 | – | – | – | – |
| Cc1nnc2n1-c1cn(C)nc1C(c1ccc(Cl)cc1)=N[C@H]2CC(=O)N1CC2(CCS2(=O)=O)C1 [Example 15, 2-[(4S)-6-(4-Chlorophenyl)-1,8-dimethyl-4,8-dihydropyrazolo[3,4-f][1,2,4]triazolo[4,3-a][1,4]diazepin-4-yl]-1-(1,1-dioxido-1-thia-6-azaspiro[3.3]hept-6-yl)ethanone] | 800 | 2700 | – | – | – | – | – |

— patent publication US20160009725A1, “PYRROLO- AND PYRAZOLO-TRIAZOLODIAZEPINES AS BET-PROTEIN INHIBITORS FOR TREATING HYPERPROLIFERATIVE DISEASES” (BAYER PHARMA AKTIENGESELLSCHAFT, priority 2013, published 2016)
